Series [1] concerns the target T1, Human immunodeficiency virus type 1 reverse transcriptase (Human immunodeficiency virus 1, UniProt Q72547). The series is described as follows: Inhibition of HIV1 ribonuclease H pre-incubated with compound before enzyme addition using RNA/DNA heteroduplex and measured after 60 mins by picogreen based spectrofluorometry.
A short description of series [2]: Selectivity index, ratio of CC50 for human MT4 cells to EC50 for HIV1 3B infected in human MT4 cells. Format: toxicity, cell-based. The settings on record: HIV-1 3B infected MT4 cells, read-out: Ratio CC50/EC50.
Series [3] concerns Human immunodeficiency virus 1. The series is described as follows: Antiviral activity against HIV1 3B infected in human MT4 cells exposed to MT4 cell CC50 level of compound added after 1 to 25 hrs post virus infection following 1 hr virus adsorption period assessed as assessed as inhibition of virus-induced cytopathogenic effect. It counts as functional, organism-based. (In general: Damage to the host cells serves as the signal in cytopathic effect assays.)

Series [4] relates to Human immunodeficiency virus 1. As to the kind of experiment: Antiviral activity against HIV1 3B infected in human MT4 cells assessed as inhibition of virus-induced cytopathogenic effect. Format: functional, organism-based. To be noted: Human immunodeficiency virus 1, 3B.
Series [5] relates to Human immunodeficiency virus 1. The series is described as follows: Antiviral activity against HIV1 3B expressing reverse transcriptase K103N/Y181C mutant infected in human MT4 cells assessed as inhibition of virus-induced cytopathogenic effect. Format: functional, organism-based.
Series [6] is described as follows: Cytotoxicity against human MT4 cells assessed as reduction in cell viability. Format: cell-based.
For series [7], the system named is Human immunodeficiency virus 1. The series is described as follows: Antiviral activity against HIV1 3B infected in human MT4 cells exposed to MT4 cell CC50 level of compound added after 1 to 25 hrs post virus infection following 1 hr virus adsorption period assessed as inhibition of virus production measured at 31 hrs post infection by p24 ELISA method. Format: functional, organism-based. On the technique in general: ELISA stands for enzyme-linked immunosorbent assay.

The target in series [8] is T1, Human immunodeficiency virus type 1 reverse transcriptase. As to the kind of experiment: Inhibition of HIV1 recombinant wild type reverse transcriptase p66/p51 pre-incubated with compound before enzyme addition using poly(rA) template and measured after 40 mins by picogreen based spectrofluorometry.
Series [9] deals with Human immunodeficiency virus type 1 reverse transcriptase (Human immunodeficiency virus 1, UniProt Q72547, K103N). The series is described as follows: Inhibition of HIV1 reverse transcriptase K103N mutant using radioactively-labeled […] substrate and activated DNA as template-primer complex.
The target in series [10] is Human immunodeficiency virus type 1 reverse transcriptase (Human immunodeficiency virus 1, UniProt Q72547, Y181C). The series is described as follows: Inhibition of HIV1 reverse transcriptase Y181C mutant using radioactively-labeled […] substrate and activated DNA as template-primer complex.
Series [11] addresses Human immunodeficiency virus type 1 reverse transcriptase (Human immunodeficiency virus 1, UniProt Q72547, L100I). The series is described as follows: Inhibition of HIV1 reverse transcriptase L100I mutant using radioactively-labeled […] substrate and activated DNA as template-primer complex.
Series [12] addresses Human immunodeficiency virus type 1 reverse transcriptase (Human immunodeficiency virus 1, UniProt Q72547, V106A). As to the kind of experiment: Inhibition of HIV1 reverse transcriptase V106A mutant using radioactively-labeled […] substrate and activated DNA as template-primer complex.
For series [13], the target named is Human immunodeficiency virus type 1 reverse transcriptase (Human immunodeficiency virus 1, UniProt Q72547, K103N/Y181C). As to the kind of experiment: Inhibition of HIV1 reverse transcriptase K103N/Y181C mutant using radioactively-labeled […] substrate and activated DNA as template-primer complex.
Series [14] concerns the target Human immunodeficiency virus type 1 reverse transcriptase (Human immunodeficiency virus 1, UniProt Q72547, G190A). The series is described as follows: Inhibition of HIV1 reverse transcriptase G190A mutant using radioactively-labeled […] substrate and activated DNA as template-primer complex.

Activity calls are given as the source filed them. No cut-off for these calls is given here. Some results are limits rather than exact numbers.

As for `Cc1cc(C)cc(Cn2c(=O)ccn(CC(=O)NCc3ccccc3)c2=O)c1`, the IC50 result in series [1] is “Not Active”; in [8] it was 194 µM. In [2], the selectivity ratio is less than 1. For the same compound, the inhibition entry in series [3], in series [5] and in series [7] was “inactive” in each case. Moreover, the half-maximal effective concentration (EC50) in [4] is more than 191 µM. Besides, in [6], the CC50 was 191 µM.
In the case of `CCCn1c(=O)ccn(Cc2ccccc2OCC(=O)Nc2ccccc2Cl)c1=O`, the selectivity ratio in series [2] was less than 1. For the same compound, the concentration giving a half-maximal response (EC50) in series [4] was more than 25.4 µM. In series [6], the CC50 was found to be 25.4 µM. For the same compound, the Ki in series [8] was more than 100 µM.
As to `O=C(Cn1ccc(=O)n(Cc2cccc3ccccc23)c1=O)Nc1ccccc1Cl`, the IC50 result was “Not Active” in [1] and 44.5 µM in series [8]. The selectivity ratio in series [2] is 26. The inhibition entry in series [3], in series [5] and in series [7] was “inactive” each time. The 50% effective concentration (EC50) in series [4] is 7.94 µM. Moreover, the CC50 in series [6] worked out at 207 µM.
Regarding `Cc1ccnc2c1NC(=O)c1cccnc1N2C1CC1` [NEVIRAPINE], the CC50 in series [6] is more than 15 µM.
`Cn1c(=O)ccn(Cc2ccccc2OCC(=O)Nc2ccccc2Cl)c1=O`: the selectivity ratio in series [2] was less than 1. The EC50 in series [4] was more than 141 µM. The CC50 in series [6] was 141 µM. In series [8], the Ki is more than 100 µM.
For `C=CCn1c(=O)ccn(Cc2ccccc2OCC(=O)Nc2ccccc2Cl)c1=O` the same measures were less than 1, more than 30.6 µM, 30.6 µM and more than 100 µM.
For `Cn1c(=O)c(F)cn(Cc2ccccc2OCC(=O)Nc2ccccc2Cl)c1=O` the same measures were less than 1, more than 30.3 µM, 30.3 µM and more than 100 µM.
With `Cc1cc(C)cc(Cn2c(=O)ccn(CC(=O)Nc3ccccc3)c2=O)c1`, the IC50 result was “Not Active” in series [1] and 79.3 µM in series [8]. Besides, the selectivity ratio in series [2] was determined as 25. The inhibition result in [3], in [5] and in series [7] was “inactive” in each case. Further, the EC50 in series [4] came to 9.68 µM. For the same compound, the CC50 in series [6] amounted to 242 µM.
For `Cn1c(=O)ccn(Cc2ccccc2OCC(=O)Nc2cc(Cl)ccc2Cl)c1=O`, in series [2], the selectivity ratio was less than 1. The EC50 in series [4] is more than 29.5 µM. Also, in series [6], the CC50 amounted to 29.5 µM. In [8], the inhibition constant (Ki) is more than 100 µM.
Consider `Cn1c(=O)ccn(Cc2ccccc2OCC(=O)Nc2ccc(Cl)cc2)c1=O`, for which, in [2], the selectivity ratio is less than 1. Besides, the EC50 in series [4] was more than 100 µM. Moreover, the CC50 in series [6] was 100 µM. Further, in [8], the inhibition constant Ki was more than 100 µM.
As for `Cc1cc(Br)cc(Cn2c(=O)ccn(CC(=O)Nc3ccccc3)c2=O)c1`, the half-maximal inhibitory concentration (IC50) result is “Not Active” in [1] and 12.1 µM in series [8]. Besides, the selectivity ratio in series [2] was found to be 17. Further, the inhibition result in series [3], in series [5] and in series [7] was “inactive” each time. Further, the EC50 in [4] was 2.01 µM. Besides, the 50% cytotoxic concentration (CC50) in [6] came to 33.1 µM.
Regarding `Cc1cc(C)cc(Cn2c(=O)ccn(CC(=O)Nc3ccccc3Cl)c2=O)c1`, the IC50 entry in series [1] was “Not Active”; in series [8], 15.7 µM. Also, the selectivity ratio in series [2] is 17. The inhibition result in [3], in [5] and in series [7] was “inactive” throughout. Also, in series [4], the EC50 was 1.71 µM. In series [6], the CC50 amounted to 28.5 µM.
Turning to `Cc1cc(C)cc(Cn2c(=O)ccn(CC(=O)Nc3ccccc3C)c2=O)c1`, the IC50 result in [1] is “Not Active”; in [8], 68.8 µM. In addition, in [2], the selectivity ratio came out at 38. Also, the inhibition result in [3], in [5] and in series [7] was “inactive” in each case. In addition, in series [4], the EC50 stood at 7.68 µM. Also, the half-maximal cytotoxic concentration (CC50) in series [6] is 292 µM.
Take `Cn1c(=O)ccn(Cc2ccccc2OCC(=O)Nc2ccccc2)c1=O`: the selectivity ratio in series [2] was less than 1. In series [4], the EC50 was more than 153 µM. Also, the 50% cytotoxic concentration (CC50) in series [6] is 153 µM. Besides, in [8], the Ki is more than 100 µM.
Turning to `O=C1Nc2ccc(Cl)cc2[C@@](C#CC2CC2)(C(F)(F)F)O1` [EFAVIRENZ], the CC50 in series [6] is more than 6 µM.
As for `Cn1c(=O)ccn(Cc2ccccc2OCC(=O)Nc2cccc(Cl)c2)c1=O`, the selectivity ratio in [2] was less than 1. Further, in series [4], the EC50 was more than 288 µM. The CC50 in [6] came to 288 µM. Further, the inhibition constant (Ki) in series [8] is more than 100 µM.
Turning to `O=C(Cn1ccc(=O)n(Cc2cc(Cl)cc(Cl)c2)c1=O)Nc1ccccc1Cl`, the 50% inhibitory concentration (IC50) in series [1] (read-out: IC50) was determined as 149 µM; in series [8], 12.7 µM. Besides, the Ki was found to be 63.3 µM in series [9]; 15.4 µM in series [10]; 15.9 µM in series [11]; 67.6 µM in series [12]; 69.9 µM in series [13]; 20 µM in series [14]. In series [8], the Ki worked out at 4.5 µM. The selectivity ratio in series [2] is 10. In addition, the inhibition result in series [3], in [5] and in series [7] was “inactive” throughout. For the same compound, the concentration for a half-maximal effect (EC50) in series [4] was 3.26 µM. For the same compound, the CC50 in series [6] was determined as 31.1 µM.
Regarding `Cc1cc(C)cc(Cn2c(=O)ccn(CC(=O)Nc3cccc(Cl)c3)c2=O)c1`, the IC50 result in series [1] is “Not Active”; in [8] it was 114 µM. The selectivity ratio in series [2] came out at 6. Further, the inhibition entry in series [3], in series [5] and in series [7] was “inactive” throughout. Moreover, the EC50 in series [4] stood at 29.5 µM. Also, in [6], the half-maximal cytotoxic concentration (CC50) amounted to 167 µM.
For `Cc1ccccc1NC(=O)COc1ccccc1Cn1ccc(=O)n(C)c1=O`, in [2], the selectivity ratio is less than 1. Moreover, the EC50 in series [4] is more than 152 µM. The CC50 in series [6] was found to be 152 µM. For the same compound, in [8], the Ki was more than 100 µM.
Consider `COc1ccccc1NC(=O)Cn1ccc(=O)n(Cc2cc(C)cc(C)c2)c1=O`, for which the IC50 result in [1] is “Not Active”; in [8], 211 µM. In addition, the selectivity ratio in [2] was determined as 16. Moreover, the inhibition result in series [3], in [5] and in [7] was “inactive” each time. Further, the EC50 in [4] amounted to 14.5 µM. Moreover, the CC50 in series [6] came to 227 µM.
`Cn1c(=O)c(Cl)cn(Cc2ccccc2OCC(=O)Nc2ccccc2Cl)c1=O`: the selectivity ratio in [2] is less than 1. Besides, the EC50 in series [4] was more than 9.37 µM. In series [6], the 50% cytotoxic concentration (CC50) was determined as 9.37 µM. For the same compound, the Ki in series [8] was more than 100 µM.
Turning to `Cc1cc(C)cc(Cn2c(=O)ccn(CC(=O)Nc3cccc(C)c3C)c2=O)c1`, the values for the IC50 entry in [1] and in series [8] were “Not Active” and more than 300 µM, respectively. Further, in series [2], the selectivity ratio was determined as 8. The inhibition entry in series [3], in series [5] and in series [7] was “inactive” in each case. Further, in [4], the concentration giving a half-maximal response (EC50) worked out at 35.8 µM. Besides, the CC50 in [6] was 276 µM.
For `Cc1cc(C)cc(Cn2c(=O)ccn(CC(=O)Nc3ccc(Cl)cc3)c2=O)c1`, the IC50 result in series [1] is “Not Active”; in series [8], 62.9 µM. Moreover, in series [2], the selectivity ratio worked out at 11. Further, the inhibition entry in series [3], in series [5] and in series [7] was “inactive” each time. The half-maximal effective concentration (EC50) in series [4] is 7.29 µM. Besides, the CC50 in [6] is 77.5 µM.
`Cc1cn(Cc2ccccc2OCC(=O)Nc2ccccc2Cl)c(=O)n(C)c1=O`: the selectivity ratio in [2] is less than 1. For the same compound, the EC50 in series [4] is more than 14.8 µM. Further, in series [6], the 50% cytotoxic concentration (CC50) was determined as 14.8 µM. Also, the Ki in series [8] was more than 100 µM.

The term IC50 denotes the midpoint of a concentration-inhibition curve. Broadly, the EC50 is the concentration giving half of the maximal effect. The term CC50 denotes the concentration that lowers cell viability or growth by half. A word on the Ki: it is a measure of affinity in units of concentration, obtained from inhibition or displacement.
